Results reported in patent US10138208B2, “Pyrazole derivatives as inhibitors of STAT3” (Mayo Foundation for Medical Education and Research, priority 2012, dated 2018).
“Also recorded” adds a separate entry of the source. Read-outs that look alike come from different tables or passages of the source.

How the values were obtained:
[1] = target: T1, STAT3 (Homo sapiens, UniProt P40763); assay: IL-6 induced STAT3 phosphorylation, Western blot / densitometry, dBT114 cells; type: cell-based; conditions: for IC50: densitometry of western blots (FIG. 12), read-out: half-maximal inhibitory concentration (IC50) for blocking STAT3 activation; for inhibition of STAT3 phosphorylation: IL-6, 10 μM, Western blot (FIG. 1); for dose dependence of inhibition of IL-6 induced STAT3 phosphorylation: increasing concentrations (FIG. 2)
T1 construct: To characterize changes in protein levels in whole cell lysates; endogenous in cells; host or cells: dBT114 (human GBM stem cell line)
Method: (§1) Compounds described herein can be tested for blocking the activation of phospho-STAT3 in vitro. […] The compounds were tested for inhibiting IL-6 induced phosphorylation of STAT3 in a human Glioblastoma GBM stem cell line (dBT114) and in the murine GBM cell line, GL261. IL-6 potently activates STAT3 phosphorylation in dBT114 cells but not as much in GL261 cells (FIG. 1), showing that GL261 cells have constitutively activated STAT3. […] A dose dependent decrease of IL-6 induced STAT3 phosphorylation in dBT114 cells using increasing concentrations of our compounds was observed, while no effect was seen on the levels of activated MAP kinase (FIG. 2).
Western Blot Analysis: Prior to analysis, cells were washed twice in cold phosphate buffered saline (PBS) and flash frozen in 200 μL of lysis buffer (50 mm/L NaCl, 50 mmol/L NaF, 50 mmol/L sodium pyrophosphate, 5 mmol/L EDTA, 5 mmol/L EGTA, 2 mmol/L Na3VO4, 1% Triton X-100, 0.5 mmol/L PMSF, […], 10 mmol/L HEPES, pH 7.4) in a ethanol/dry ice bath followed by scraping and a 5 second sonication to achieve a homogeneous solution. Sample protein concentrations were determined using the Bradford protein assay kit (Bio-Rad, Hercules, Calif.). To characterize changes in protein levels in whole cell lysates, 10 μg of total protein was size fractioned by 12% SDS-PAGE, transferred to nitrocellulose and stained with Ponceau-S stain to ensure equal protein loading. For Western blot analysis, membranes were incubated for 1 hour in blocking solution containing 1% dry milk in PBS-T, followed by an overnight incubation with either anti-Stat3 (Santa Cruz Biotechnology, Santa Cruz, Calif.,) or anti-Phospho-Stat3 (Santa Cruz). Nitrocellulose membranes were then incubated for 1 hour with horseradish peroxidase conjugated anti-IgG antibodies and visualized using Super Signal West Pico enhanced chemiluminescence detection (Thermo Scientific, Waltham, Mass.).
Western Densitometry—Determination of Half-Maximal Inhibitory Concentration for Activating STAT3: Dose Response Curves Half-maximal inhibitory concentrations for activating STAT3 (IC50 values) were calculated in BT114 cells from western blot data. The original western blot films were analyzed by densitometric analysis using the software program NIH Image (available at rsb.info.nih.gov/nih-image/). Standard dose-response curves were then created using the software program Prism 5.

[2] = tested on: medulloblastoma (DAOY) cells; assay: IncuCyte cell proliferation assay (confluence), DAOY; type: cell-based; conditions: DAOY cells (FIG. 5A)
Method: (§2) Pyrazole-based inhibitors were tested for efficacy in stopping tumor cell growth by performing cell proliferation assays in glioblastoma (dBT114), medulloblastoma (DAOY) and human colorectal carcinoma (HCT116) cells lines. Tumor cells were plated in 96-well plates and varying concentrations of inhibitors or DMSO were added initially or after several log-growths of tumor cells. Cell proliferation was determined by measuring cell confluency using an automated system. […] Similar effects were found on tumor cell proliferation in DAOY and HCT116 tumor cell lines (FIG. 5, again only showing C6 data). The effects of C6 and C3 on tumor cell proliferation were compared to other previously characterized inhibitors, specifically, WP1066 (a Jak2 inhibitor) and LLL-12 (a direct STAT3 inhibitor).
(§3) IncuCyte Cell Proliferation Assay: Cell proliferation assays were performed on dBT114, DAOY and HCT116 cells using an IncuCyte 2011A microplate imager (Essen BioScience, Ann Arbor, Mich.). Cells were plated at a density of 3000 cells per well in a 96 well plate and allowed to reach exponential growth phase prior to the addition of test compounds. Cell confluence was measured optically every three hours for up to 90 hours.

[3] = tested on: DAOY cells; assay: Annexin V/propidium iodide apoptosis assay, DAOY; type: cell-based; conditions: dose dependent, 24 hours
Method: (§4) The compounds were tested for their effect on tumor cell viability by initiating apoptosis through Annexin V-FITC cell staining analysis. […] Cell death was most pronounced in DAOY cells, followed by BT114 and then HCT cells (FIG. 8). […] The difference in cell death between cell lines may reflect differences in STAT3 signaling between tumor cell types.
(§5) Apoptosis Assay: Analysis of cell death through an apoptosis pathway was determined using an Annexin V apoptosis detection kit (Calbiochem, Rockland, Mass.). dBT114, DAOY and HCT116 cells were plated in 6-well tissue culture plates at a density of 500 cells per well and allowed to reach 60% confluence prior to addition of test compounds for 24 hours. Floating and adherent cells were harvested and stained with FITC-labeled Annexin V and propidium iodide for 15 minutes at room temperature in the dark. The cells were then washed with cold binding buffer and immediately analyzed by flow cytometry for cells staining positive for both Annexin V and propidium iodide.

[4] = tested on: human colorectal carcinoma (HCT116) cells; assay: IncuCyte cell proliferation assay (confluence), HCT116; type: cell-based; conditions: human colorectal carcinoma cell line HCT116 (FIG. 5B)
Method: as §2, §3

[5] = tested on: glioblastoma (dBT114) cells; assay: IncuCyte cell proliferation assay (confluence), dBT114; type: cell-based, human; conditions: for dose-dependent inhibition of tumor cell proliferation: dBT114 cells (FIG. 4B); for effect on tumor cell growth kinetics (confluence): 50 μM (FIG. 4A)
Method: as §2, §3

[6] = tested on: HCT116 cells; assay: Annexin V/propidium iodide apoptosis assay, HCT116; type: cell-based, human; conditions: HCT (HCT116) cells, dose dependent, 24 hours
Method: as §4, §5

[7] = tested on: dBT114 cells; assay: Annexin V/propidium iodide apoptosis assay, dBT114; type: cell-based, human; conditions: for cell death through apoptosis (Annexin V/PI flow cytometry): dBT114 (BT114) cells, dose dependent, 24 hours
Method: as §4, §5

[8] = tested on: Normal Human Astrocytes (NHA); assay: MTT cell proliferation assay, normal human astrocytes; conditions: 24 hour exposure, increasing concentrations, n=4 (FIG. 13)
Method: (§8) MTT Cell Proliferation Assay: Normal Human Astrocytes (Lonza) and human BT114 cells were plated at a density of 5000 cells per well in a 96-well tissue culture plate and incubated at 37° C. in the presence of 5% CO2 for 24 hours. Cell proliferation was determined using the CellTiter 96 Cell Proliferation Assay (Promega). After 24 hours cells were refed with normal media and MTT dye solution was added according to manufacturer's protocol. After 4 hours the reaction was stopped and absorbance was measured at 570 nm using a 96 well plate reader. […] (n=4).

[9] = tested on: DAOY cells; assay: Uptake in living cells by confocal microscopy; type: cell-based; conditions: live DAOY cells, 50 μM, 30 minutes, confocal microscopy (FIG. 9)
Method: Further, live DAOY cells were treated with 50 μM C9 for 30 minutes and then evaluated its uptake with confocal microscopy.

[10] = tested on: MAP kinase; assay: Activated MAP kinase levels, Western blot, dBT114 cells; type: cell-based, human; conditions: increasing concentrations (FIG. 2)
Method: as §1
(§6) Western Blot Analysis: Prior to analysis, cells were washed twice in cold phosphate buffered saline (PBS) and flash frozen in 200 μL of lysis buffer (50 mm/L NaCl, 50 mmol/L NaF, 50 mmol/L sodium pyrophosphate, 5 mmol/L EDTA, 5 mmol/L EGTA, 2 mmol/L Na3VO4, 1% Triton X-100, 0.5 mmol/L PMSF, […], 10 mmol/L HEPES, pH 7.4) in a ethanol/dry ice bath followed by scraping and a 5 second sonication to achieve a homogeneous solution. Sample protein concentrations were determined using the Bradford protein assay kit (Bio-Rad, Hercules, Calif.). […]

[11] = tested on: Bcl-2; assay: Downstream target of STAT3 transcription: Bcl-2 protein level in dBT114 cells; type: cell-based, human; conditions: various concentrations, 24 hours (FIG. 3, FIG. 10B)
Method: (§7) STAT3 is a transcription factor that leads to the activation of several pro-proliferation proteins including Cyclin D1 and numerous anti-apoptotic proteins such as Bcl-2. To analyze the effects on the downstream targets of STAT3 transcription, Cyclin D1 and Bcl-2 protein levels were monitored after exposure to the compounds described. dBT114 cells were treated with various concentrations of C3, C10 or DMSO for 24 hours.
as §6, with “Calif.). To characterize changes in protein levels in whole cell lysates, 10 μg of total protein was size fractioned by 12% SDS-PAGE, transferred to nitrocellulose and stained with Ponceau-S stain to ensure equal protein loading.” for “Calif.).”

[12] = tested on: Normal Human Astrocytes (NHA)
Method: as §8

[13] = target: T2, STAT3 (Mus musculus, UniProt P42227); assay: STAT3 phosphorylation, Western blot, GL261 cells; type: cell-based, murine; conditions: GL261 cells (constitutively activated STAT3), 10 μM, Western blot (FIG. 1)
T2 construct: endogenous in cells; host or cells: GL261 (murine GBM cell line)
Method: as §1, §6

[14] = tested on: PARP; assay: PARP cleavage in dBT114 cells; type: cell-based, human; conditions: various concentrations, 24 hours (FIG. 3, FIG. 10B)
[15] = tested on: Cyclin D1; assay: Downstream target of STAT3 transcription: Cyclin D1 protein level in dBT114 cells; type: cell-based, human; conditions: various concentrations, 24 hours (FIG. 3)
Method: as §7
as §6, with “Calif.). To characterize changes in protein levels in whole cell lysates, 10 μg of total protein was size fractioned by 12% SDS-PAGE, transferred to nitrocellulose and stained with Ponceau-S stain to ensure equal protein loading.” for “Calif.).”

T1 sequence (P40763 whole entry): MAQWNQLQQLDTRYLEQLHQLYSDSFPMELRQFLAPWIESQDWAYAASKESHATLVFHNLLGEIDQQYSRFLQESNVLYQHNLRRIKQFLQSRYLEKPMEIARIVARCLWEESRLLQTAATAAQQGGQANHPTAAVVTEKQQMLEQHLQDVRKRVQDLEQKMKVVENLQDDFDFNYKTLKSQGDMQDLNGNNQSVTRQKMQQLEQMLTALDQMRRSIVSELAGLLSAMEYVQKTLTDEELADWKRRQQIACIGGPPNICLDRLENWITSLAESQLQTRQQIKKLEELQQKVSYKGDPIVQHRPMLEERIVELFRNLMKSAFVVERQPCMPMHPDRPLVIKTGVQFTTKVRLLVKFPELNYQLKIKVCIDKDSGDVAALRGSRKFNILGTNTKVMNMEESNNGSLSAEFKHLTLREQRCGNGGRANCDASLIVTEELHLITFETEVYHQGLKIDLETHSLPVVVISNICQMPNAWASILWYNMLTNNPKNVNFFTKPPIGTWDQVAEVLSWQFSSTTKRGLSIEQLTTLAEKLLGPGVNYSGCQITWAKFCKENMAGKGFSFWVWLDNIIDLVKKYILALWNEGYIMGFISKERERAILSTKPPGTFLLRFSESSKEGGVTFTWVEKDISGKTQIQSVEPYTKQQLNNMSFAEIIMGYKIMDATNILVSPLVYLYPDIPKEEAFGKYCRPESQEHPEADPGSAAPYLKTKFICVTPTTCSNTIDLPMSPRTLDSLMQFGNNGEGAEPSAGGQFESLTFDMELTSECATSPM
T2 sequence (P42227 whole entry): as the sequence (P40763 whole entry) above, with E760D counted along it

uptake and fluorescence in living cells [9]	SMILES	IC50 [1] [nM]	dose-dependent inhibition of tumor cell proliferation [2]	cell death through apoptosis (Annexin V/PI flow cytometry) [3]	dose-dependent inhibition of tumor cell proliferation [4]	dose-dependent inhibition of tumor cell proliferation [5]	effect on tumor cell growth kinetics (confluence) ([5]; dBT114 cells)	cellular proliferation, combination with temozolomide (TMZ) ([5]; dBT114 cells, C6 fixed 25 μM with increasing concentrations of TMZ (FIG. 7))	cell death through apoptosis (Annexin V/PI flow cytometry) [6]	relative potency in causing cell death ([7]; all cell lines tested (BT114, DAOY, HCT))	cell death through apoptosis (Annexin V/PI flow cytometry) [7]	metabolic activity of normal human astrocytes [8]	effect on levels of activated MAP kinase [10]	inhibition of STAT3 phosphorylation [1]	dose dependence of inhibition of IL-6 induced STAT3 phosphorylation [1]	Bcl-2 protein level [11]	metabolic activity of normal human astrocytes [12]	inhibition of STAT3 phosphorylation [13]	cleavage of PARP (induction of apoptosis) [14]	Cyclin D1 protein level [15]
	CC(C)CCc1cc(-c2ccc(Br)cc2)n(-c2ccc(S(N)(=O)=O)cc2)n1 [C6, 5-(4-Bromophenyl)-3-(isopentyl)-1-(4-aminosulfonylphenyl)-1H-pyrazole]	13400	dose dependent inhibition	cell death through apoptosis	dose dependent inhibition	dose-dependent inhibition; also recorded: dose dependent inhibition	profound effect	dose-dependent decrease	cell death through apoptosis	more potent than C4	cell death through apoptosis; also recorded: dose-dependent apoptosis	no clear pattern of increased or decreased metabolic activity								
	CC(=O)Nc1ccc(Cc2cc(-c3ccc(Br)cc3)n(-c3ccc(S(N)(=O)=O)cc3)n2)cc1 [C4, 3-(4-Acetamidebenzyl)-5-(4-bromophenyl)-1-(4-aminosulfonylphenyl)-1H-pyrazole]	> 50000		cell death through apoptosis		dose-dependent inhibition			cell death through apoptosis		cell death through apoptosis; also recorded: dose-dependent apoptosis	no clear pattern of increased or decreased metabolic activity								
strong uptake and fluorescence	CC(C)CCc1cc(-c2ccccc2)nn1-c1ccc(S(N)(=O)=O)cc1 [C9, 3-(Phenyl)-5-(isopentyl)-1-(4-aminosulfonylphenyl)-1H-pyrazole]																			
	NS(=O)(=O)c1ccc(-n2nc(Cc3ccc(NC(=O)COCC(=O)NCCCCCCCNC(=O)COCC(=O)Nc4ccc(Cc5cc(-c6ccc(Br)cc6)n(-c6ccc(S(N)(=O)=O)cc6)n5)cc4)cc3)cc2-c2ccc(Br)cc2)cc1 [C10, 3-[{2-[(7-{2-[((4-((5-(4-Bromophenyl)-1-(4-sulfamoylphenyl)-1H-pyrazol-3-yl)methyl)phenyl)aminocarbonyl)-methoxy]-acetylamino}-heptylaminocarbonyl)-methoxy]-acetyl}-(4-aminobenzyl)]-5-(4-bromophenyl)-1-(4-aminosulfonylphenyl)-1H-pyrazole]	207									dose-dependent apoptosis		no effect	potently inhibited; also recorded: blocked	dose-dependent inhibition	dose-dependent reduction	no clear pattern of increased or decreased metabolic activity	potently inhibited; also recorded: blocked	increase	decreased Cyclin D1 levels in a dose dependent fashion
	CNC(=O)COCC(=O)Nc1ccc(Cc2cc(-c3ccc(Br)cc3)n(-c3ccc(S(N)(=O)=O)cc3)n2)cc1 [C3, 3-[{2-[(Methylaminocarbonyl)-methoxy]-acetyl}-(4-aminobenzyl)]-5-(4-bromophenyl)-1-(4-aminosulfonylphenyl)-1H-pyrazole]	670				dose-dependent inhibition	profound effect				dose-dependent apoptosis		no effect	potently inhibited; also recorded: blocked	dose-dependent inhibition	decreased Bcl-2 in a dose dependent fashion; also recorded: dose-dependent reduction	no clear pattern of increased or decreased metabolic activity	potently inhibited; also recorded: blocked	cleavage of PARP; also recorded: increase	
